Reference: paper PMC3402085 (ACS medicinal chemistry letters, 2012)

How the values were obtained:
[1] = test system: PC-12 cells expressing mutant G93A SOD1; experiment: Mutant SOD1-induced cytotoxicity protection assay; type: cell-based; conditions: result in words
primary cortical neurons = experiment: Primary cortical neuron protection assay; type: cell-based; conditions: result in words
[2] = test system: PC-12 cells expressing mutant G93A SOD1; conditions: result in words; previously prepared compound; cited from earlier work

C[C@H](Oc1cc(C(F)(F)F)cc(C(F)(F)F)c1)C1CC(=O)CC(=O)C1 [1b]
protection against mutant SOD1 induced toxicity in PC-12 cells [1]: protective
activity in cortical neurons (primary cortical neurons): active

O=C1CC(=O)CC([C@@H]2C[C@H]2c2cc(C(F)(F)F)cc(C(F)(F)F)c2)C1 [2b]
protection against mutant SOD1 induced toxicity in PC-12 cells [1]: protective
activity in cortical neurons (primary cortical neurons): active

O=C1CC(=O)CC(c2cc(C(F)(F)F)cc(C(F)(F)F)c2)C1 [compound 13]
inhibition of protein aggregation in PC-12 cells expressing mutant G93A SOD1 [2]: potent inhibitor
